Results reported in patent US5502202A, “Aminoalkylthiazole derivative” (Taisho Pharmaceutical Co., Ltd., priority 1991, dated 1996).
Structures can show the parent of a compound that is named as a salt.

How the values were obtained:
dopamine autoreceptor = conditions: reported in literature, cited from earlier work
[1] = system: (+)-SKF 10047-induced stereotypical behavior; experiment: Test on action on (+)-SKF 10047-induced abnormal (stereotypical) behaviors; type: in vivo, mouse (male ICR); conditions: Mus musculus; oral, 30 min (35 min for drug C) before 30 mg/kg i.p. (+)-SKF 10047; scores over 40 min; read-out: ED25 (stereotypical behavior suppression)
Description: TEST EXAMPLE 2 Test on Action on (+)-[…] Abnormal Behaviors! Male ICR mice (Nippon Charles River) aged 4 to 5 weeks were divided into groups each having 10 animals and used. Each animal was separately fed in a small transparent cage and fully familiarized with its environment. To the animals, test drugs […] % gum arabic at various concentrations were orally administered. […] Since 10 minutes thereafter, stereotypical behavior scores were measured for 40 minutes at intervals of 5 minutes. (Test drug) (Stereotypical behavior score) 0: normal behaviors 1: sniffing, standing up 2: discontinuous movement, sniffing stronger than 1 3: circling, moving backward 4: continuous circling 5: bending and stretching of limbs, head and neck The stereotypical behavior suppression ratio was determined on the basis of the sum of the scores of the test groups measured 8 times within 40 minutes by referring the sum of the score of a solvent (distilled water for injection) administered-group measured 8 times within 40 minutes as to 100%. Each ED25 value was calculated by determining the slope of a line of the suppression ratio formed by the method of least squares.

sigma receptor [2] = biological target: sigma receptor (Rattus norvegicus, UniProt Q9R0C9); experiment: biochemical; type: binding, rat (male Wistar); conditions: for IC50: 2 nM [3H](+)-3-PPP, rat whole brain membrane, pH 8.0, 21° C., 90 min; for inhibition at 1 µM: pH 8, read-out: Sigma receptor Inhibition % (1 μM)
Sequence of sigma receptor (Rattus norvegicus, UniProt Q9R0C9) (Q9R0C9 whole entry): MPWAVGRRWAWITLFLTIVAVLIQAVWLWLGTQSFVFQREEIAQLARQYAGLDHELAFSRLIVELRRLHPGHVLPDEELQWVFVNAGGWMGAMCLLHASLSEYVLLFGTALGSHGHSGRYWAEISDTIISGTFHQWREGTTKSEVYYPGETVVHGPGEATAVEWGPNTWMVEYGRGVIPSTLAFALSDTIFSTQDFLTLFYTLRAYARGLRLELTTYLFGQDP
Description: (§1) Male Wistar rats were employed as test animals.
(§2) Radiolabeled ^3 H! […] (-)-sulpiride was used as a compound specifically binding to dopamine D2 receptor.
(§3) Reactions of these ^3 H! compounds binding to the corresponding receptors were performed respectively in accordance with the following methods (1) and (2) described in Molecular Pharmacology, 32, 772 (1987), Journal of Pharmacy and Pharmacology, 32, 441 (1980) and Molecular Pharmacology, 32, 820 (1987).
(§4) After the completion of each reaction, the reaction mixture was filtered with suction into a glass filter (GF/B) and the radioactivity of the filter paper was measured with a liquid scintillation spectrometer.
(§5) (-)-sulpiride, and the difference between the total binding (the value measured by adding no test drug) and the nonspecific binding was referred to as the specific binding.
(§6) By reacting the ^3 H! compound at a definite concentration (2 nM) with the test drugs at various concentrations under the conditions as specified in the above (1) and (2), inhibition curves were obtained. On the basis of these inhibition curves, the concentration of each test drug causing 50% inhibition of the specific binding (IC50) was determined.

dopamine D2 receptor [3] = biological target: dopamine D2 receptor (Rattus norvegicus, UniProt P61169); experiment: biochemical; type: binding, rat (male Wistar); conditions: for IC50: 2 nM [3H](-)-sulpiride, rat striata membrane, pH 7.7, 37° C., 10 min; for inhibition at 1 µM: pH 7.7, read-out: Dopamine D2 receptor Inhibition % (1 μM)
Sequence of dopamine D2 receptor (Rattus norvegicus, UniProt P61169) (P61169 whole entry): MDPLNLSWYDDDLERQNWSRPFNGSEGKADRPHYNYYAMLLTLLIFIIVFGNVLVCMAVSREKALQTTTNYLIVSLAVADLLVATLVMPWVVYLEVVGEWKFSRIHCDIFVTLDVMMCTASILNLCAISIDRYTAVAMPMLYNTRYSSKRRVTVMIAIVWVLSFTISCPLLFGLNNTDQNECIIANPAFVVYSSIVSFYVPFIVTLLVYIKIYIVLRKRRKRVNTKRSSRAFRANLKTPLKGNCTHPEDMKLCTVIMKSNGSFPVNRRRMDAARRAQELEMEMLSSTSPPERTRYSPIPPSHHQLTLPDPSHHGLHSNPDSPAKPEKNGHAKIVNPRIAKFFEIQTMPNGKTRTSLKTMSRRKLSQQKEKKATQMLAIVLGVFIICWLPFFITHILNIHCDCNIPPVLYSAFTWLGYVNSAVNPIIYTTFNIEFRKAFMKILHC
Description: as §1, §2, §3
(2) ^3 H! (-)-sulpiride binding:
(-)-sulpiride and a test drug were incubated in 1 ml of a 50 mM Tris-HCl buffer solution (pH 7.7) at 37° C. for 10 minutes.
as §4, §5, §6

sigma receptor [4] = conditions: rimcazole, cited from European Journal of Pharmacology, 155, 345 (1988); cited from earlier work
dopamine D2 receptor [5] = conditions: rimcazole, cited; value for [3H] spiperone binding; cited from earlier work

Compound	ED25 [1] [mg/kg]	IC50 (sigma receptor [2]) [nM]	inhibition at 1 µM (sigma receptor [2]) [%]	also measured
C=CCN1CCc2nc(N)sc2CC1 [talipexole]	–	–	–	effect on dopamine nerve system (in words) (dopamine autoreceptor; by stimulating the presynaptic autoreceptor): suppresses nerve ignition and biosynthesis and liberation of dopamine; selective dopamine autoreceptor agonism (in words) (dopamine autoreceptor): selective dopamine autoreceptor agonist
OC(CCCN1CCN(c2ncc(F)cn2)CC1)c1ccc(F)cc1 (stereo not drawn) [BMY 14802]	7.6	–	–	–
CCCN1CCCC(c2cccc(O)c2)C1 (single isomer, unassigned) [3-PPP, 3-(3-hydroxyphenyl)-N-n-propylpiperidine, reference compound]	–	24.3	–	–
CCCCCN(CCCCC)CCc1sc(N)nc1-c1ccc(Br)cc1 [Test Drug A (Table 1), 2Amino-4-(4-bromophenyl)-5-(2-di-n-pentylaminoethyl)-thiazole dihydrochloride]	–	8.7	93.1	–
CCCCCCCCN(CCCCCCCC)CCc1sc(N)nc1-c1ccc(Br)cc1 [Test Drug C (Table 1), 2Amino-4-(4-bromophenyl)-5-(2-di-n-octylaminoethyl)-thiazole dihydrochloride]	–	3.2	99.7	IC50 (dopamine D2 receptor [3]): > 1000 nM; inhibition at 1 µM (dopamine D2 receptor [3]): -31%
C[C@@H]1CN(CCCn2c3ccccc3c3ccccc32)C[C@H](C)N1 [Rimcazole]	37.9	–	–	IC50 (sigma receptor [4]): 1460 nM; IC50 (dopamine D2 receptor [5]): 86000 nM
CCCCCCN(CCCCCC)CCc1sc(N)nc1-c1ccc(Br)cc1.Cl.Cl [Test Drug B (Table 1), 2-Amino-4-(4-bromophenyl)-5-(2-di-n-hexylaminoethyl)thiazole dihydrochloride]	0.019	1.6	100	IC50 (dopamine D2 receptor [3]): > 1000 nM; inhibition at 1 µM (dopamine D2 receptor [3]): -33.3%
